Assay results: patent US20210275657A1, “NEOANTIGENS AND USES THEREOF” (BioNTech US Inc., priority 2018, published 2021)
Where no end group is shown, it is not given here.

Legend:
indicated HLA alleles [1] = experiment: Stability of mutant BTK neopeptides with the HLA alleles; assay type: binding, human; conditions: BTK_C481S
Procedure: (§1) Multiple peptides containing neoepitopes in the table below were either expressed or loaded onto antigen presenting cells. Mass spectrometry was then performed and the affinity of the neoepitopes for indicated HLA alleles were determined, and the stability of the neoepitopes with the HLA alleles were determined.

indicated HLA alleles [2] = target: indicated HLA alleles (Homo sapiens, UniProt P01889); experiment: Affinity of mutant BTK neopeptides for indicated HLA alleles; assay type: binding
Procedure: as §1

indicated HLA alleles [3] = experiment: as above; assay type: binding, human; conditions: BTK_C481S
Procedure: as §1

HLA-A02:01 [4] = target: T1, HLA-A02:01 (Homo sapiens, UniProt P04439, D140Y/D185E/D98H/E176V/E277Q/G131W/G231S/I119V/I121R/I166T/I218V/L300P/L318F/N151K/N90K/P208A/P217A/Q86G/Q94H/R138H/R169H/T345S); experiment: Affinity measurements, competition with radiolabeled peptide (Example 20); assay type: binding
indicated HLA alleles [5] = experiment: Affinity of GATA3 neoORF neoepitopes for the indicated HLA alleles (Example 9, Table 4); assay type: binding, human; conditions: Allele A02.01; read-out: Observed MHC affinity
Procedure: (§2) Multiple peptides containing the neoepitopes in Table 4 below were expressed or loaded onto antigen presenting cells (APCs). Mass spectrometry was then performed and the affinity of the neoepitopes for the indicated HLA alleles and stability of the neoepitopes with the HLA alleles was determined.

HLA-A02:01 [6] = target: T1, HLA-A02:01; experiment: Stability measurements, pMHC-I dissociation with 125I light chain (Example 20); assay type: binding
Procedure: To measure the binding stability of peptides to Class I MHC, synthetic genes encoding biotinylated MHC-I heavy and light chains are expressed in E. coli and purified from inclusion bodies using standard methods. […] These reactions were carried out in streptavidin coated microplates to bind the biotinylated MHC-I heavy chains to the surface and allow measurement of radiolabeled light chain to monitor complex formation. Dissociation was initiated by addition of higher concentrations of unlabeled light-chain and incubation at 37° C. Stability was defined as the length of time in hours it takes for half of the complexes to dissociate, as measured by scintillation counts. Duplicate measurements were performed. The average of the two measurements was taken as the stability.

indicated HLA alleles [7] = experiment: Stability of GATA3 neoORF neoepitopes with the HLA alleles (Example 9, Table 4); assay type: binding, human; conditions: Allele A02.01
Procedure: as §2

| Compound | Stability (1/2 hr) (indicated HLA alleles [1]; HLA A02.01) [h] | Stability (1/2 hr) (indicated HLA alleles [1]; HLA B07.02) [h] | Stability (1/2 hr) (indicated HLA alleles [1]; HLA B08.01) [h] | Kd (indicated HLA alleles [2]) [nM] | Kd (indicated HLA alleles [3]; HLA A02.01) [nM] | Kd (indicated HLA alleles [3]; HLA B08.01) [nM] | IC50 (HLA-A02:01 [4]) [nM] | Kd (indicated HLA alleles [5]) [nM] | Experiment 1 half-life (HLA-A02:01 [6]) [min] | Experiment 2 half-life (HLA-A02:01 [6]) [min] | Average half-life (HLA-A02:01 [6]; average of experiments 1 and 2) [min] | Observed MHC stability (indicated HLA alleles [7]) [h] |
| --- | --- | --- | --- | --- | --- | --- | --- | --- | --- | --- | --- | --- |
| CSCC[C@H](NC(=O)[C@H](CCC(=O)O)NC(=O)[C@H](CCCNC(=N)N)NC(=O)[C@H](CC(C)C)NC(=O)[C@H](Cc1ccc(O)cc1)NC(=O)[C@H](CC(N)=O)NC(=O)[C@H](CC(C)C)NC(=O)[C@H](CC(C)C)NC(=O)[C@@H](N)CO)C(=O)O | 3.044 | 0 | 0 | 866 | 67.7 | 960 | – | – | – | – | – | – |
| TLQRSSLWCL | – | – | – | – | – | – | 281 | 118 | 30 | 30 | 30 | 0.5 |
